Measurements as given in US7776904B2, “Azabicyclo [3.1.0] hexylphenyl derivatives as modulators of dopamine D3 receptors” (Glaxo Group Limited, priority 2005, dated 2010).

Biological target: T1, dopamine D3 receptor (Homo sapiens, UniProt P35462)
T1 construct: expressed in transfected cells; membranes prepared from them
Assay: GTPγS scintillation proximity assay (GTPγS-SPA), CHO_D3 cell membranes
Format: biochemical
Settings: Enantiomer 2 compared with Enantiomer 1 of Example 1
Protocol: Functional potency and intrinsic activity of compounds of this invention can be measured by the following GTPγS scintillation proximity assay (GTPγS-SPA). Cells used in the study are Chinese Hamster Ovary (CHO) Cells.
Compounds may be tested according to two alternative protocols:
a) Cell membranes are prepared as follows. Cell pellets are resuspended in 10 volumes of 50 mM HEPES, 1 mM EDTA pH 7.4, using KOH. On the day the following proteases are added to the buffer just prior to giving the homogenisation buffer.
The cells are homogenised by 2×15 second bursts in a 1 litre Glass Waring blender in a class two biohazard cabinet. The resulting suspension is spun at 500 g for 20 mins (Beckman T21 centrifuge: 1550 rpm). The supernatant is withdrawn with a 25 ml pipette, aliquotted into pre-chilled centrifuge tubes and spun at 48,000 g to pellet membrane fragments (Beckman T1270: 23,000 rpm for 30 mins). The final 48,000 g pellet is resuspended in Homogenisation Buffer, (4× the volume of the original cell pellet). […] Protein content in the membrane preparations is evaluated with the Bradford protein assay.
The final top concentration of test drug is 3 uM in the assay and 11 points serial dilution curves 1:4 in 100% DMSO are carried out using a Biomek FX. […] Assay plates are counted on a Viewlux, 613/55 filter, for 5 min., between 2-6 hours after the final addition. […]

T1 sequence (P35462 whole entry, species assumed): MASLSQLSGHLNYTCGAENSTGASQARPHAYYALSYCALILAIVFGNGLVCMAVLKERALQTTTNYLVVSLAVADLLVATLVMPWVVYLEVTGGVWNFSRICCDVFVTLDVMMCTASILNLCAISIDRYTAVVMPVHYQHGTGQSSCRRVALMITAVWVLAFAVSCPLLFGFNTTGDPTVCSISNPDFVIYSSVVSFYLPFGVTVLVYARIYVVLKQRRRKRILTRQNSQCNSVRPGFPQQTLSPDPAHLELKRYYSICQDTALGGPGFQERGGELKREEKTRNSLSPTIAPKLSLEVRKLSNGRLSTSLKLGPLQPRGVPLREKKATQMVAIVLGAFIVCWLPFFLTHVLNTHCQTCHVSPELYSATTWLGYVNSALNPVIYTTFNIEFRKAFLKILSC

`CC(C)c1ccc(S(=O)(=O)Nc2ccc(C34CNCC3C4)cc2)cc1.Cl` (single isomer, unassigned; enantiomer 2) [Enantiomer 2, N-{4-[(1R,5R or 1S,5R)-3-azabicyclo[3.1.0]hex-1-yl]phenyl}-4-(1-methylethyl)benzenesulfonamide hydrochloride] was tested, and the “fpki (D3) difference, higher than Enantiomer 1” value was greater than 1 log-unit.
